Read-outs that look alike come from different tables or passages of the source.
Key:
NR1/NR2A = molecular target: T1, NR1/NR2A (Homo sapiens, UniProt Q12879); test: Two electrode voltage clamp, Xenopus laevis oocytes expressing NR1/NR2A; assay type: cell-based; conditions: read-out: 2A percent effect at the maximum tested concentration
T1 construct: expressed in transfected cells; host or cells: Xenopus laevis oocytes
Protocol: (§1) In the table above, potency is expressed as fitted EC50 value to average composite concentration-effect data constructed from current responses recorded under two electrode voltage clamp from Xenopus laevis oocytes expressing either NR1/NR2A, B, C, or D, GluR1, or GluR6. No effect means less than 20% change in response amplitude at 30 μM of drug.

NR1/NR2B = molecular target: T2, NR1/NR2B (Homo sapiens, UniProt Q05586+Q13224); test: Two electrode voltage clamp, Xenopus laevis oocytes expressing NR1/NR2B; assay type: cell-based; conditions: for IC50: fitted to composite concentration-effect data, Max 0 = inhibition, read-out: 2B IC50
T2 construct: expressed in transfected cells; host or cells: Xenopus laevis oocytes
Protocol: as §1

NR1/NR2C = molecular target: T3, NR1/NR2C (Homo sapiens, UniProt Q05586+Q14957); test: Two electrode voltage clamp, Xenopus laevis oocytes expressing NR1/NR2C; assay type: cell-based; conditions: for activity at 100 µM: read-out: 2C percent effect at the maximum tested concentration; for IC50: fitted to composite concentration-effect data, read-out: 2C IC50; for Emax: maximal effect of fit, read-out: 2C Max
T3 construct: expressed in transfected cells; host or cells: Xenopus laevis oocytes
Source text: Values are mean+SEM (n=14-20). […] C is the closed level; broken line is the open level.
The Hill slope at both receptors for all analogues was greater than 1, consistent with a cooperative effect of binding at two sites.
as §1

NR1/NR2D = NR1/NR2D (Homo sapiens, UniProt O15399+Q05586); test: Two electrode voltage clamp, Xenopus laevis oocytes expressing NR1/NR2D; conditions: for Emax: read-out: 2D Max
[1] = read-out: 2B percent effect at the maximum tested concentration
[2] = read-out: 2D percent effect at the maximum tested concentration, at 100 μM

T2 sequence (Q13224 27-1484, species assumed, other chains not shown): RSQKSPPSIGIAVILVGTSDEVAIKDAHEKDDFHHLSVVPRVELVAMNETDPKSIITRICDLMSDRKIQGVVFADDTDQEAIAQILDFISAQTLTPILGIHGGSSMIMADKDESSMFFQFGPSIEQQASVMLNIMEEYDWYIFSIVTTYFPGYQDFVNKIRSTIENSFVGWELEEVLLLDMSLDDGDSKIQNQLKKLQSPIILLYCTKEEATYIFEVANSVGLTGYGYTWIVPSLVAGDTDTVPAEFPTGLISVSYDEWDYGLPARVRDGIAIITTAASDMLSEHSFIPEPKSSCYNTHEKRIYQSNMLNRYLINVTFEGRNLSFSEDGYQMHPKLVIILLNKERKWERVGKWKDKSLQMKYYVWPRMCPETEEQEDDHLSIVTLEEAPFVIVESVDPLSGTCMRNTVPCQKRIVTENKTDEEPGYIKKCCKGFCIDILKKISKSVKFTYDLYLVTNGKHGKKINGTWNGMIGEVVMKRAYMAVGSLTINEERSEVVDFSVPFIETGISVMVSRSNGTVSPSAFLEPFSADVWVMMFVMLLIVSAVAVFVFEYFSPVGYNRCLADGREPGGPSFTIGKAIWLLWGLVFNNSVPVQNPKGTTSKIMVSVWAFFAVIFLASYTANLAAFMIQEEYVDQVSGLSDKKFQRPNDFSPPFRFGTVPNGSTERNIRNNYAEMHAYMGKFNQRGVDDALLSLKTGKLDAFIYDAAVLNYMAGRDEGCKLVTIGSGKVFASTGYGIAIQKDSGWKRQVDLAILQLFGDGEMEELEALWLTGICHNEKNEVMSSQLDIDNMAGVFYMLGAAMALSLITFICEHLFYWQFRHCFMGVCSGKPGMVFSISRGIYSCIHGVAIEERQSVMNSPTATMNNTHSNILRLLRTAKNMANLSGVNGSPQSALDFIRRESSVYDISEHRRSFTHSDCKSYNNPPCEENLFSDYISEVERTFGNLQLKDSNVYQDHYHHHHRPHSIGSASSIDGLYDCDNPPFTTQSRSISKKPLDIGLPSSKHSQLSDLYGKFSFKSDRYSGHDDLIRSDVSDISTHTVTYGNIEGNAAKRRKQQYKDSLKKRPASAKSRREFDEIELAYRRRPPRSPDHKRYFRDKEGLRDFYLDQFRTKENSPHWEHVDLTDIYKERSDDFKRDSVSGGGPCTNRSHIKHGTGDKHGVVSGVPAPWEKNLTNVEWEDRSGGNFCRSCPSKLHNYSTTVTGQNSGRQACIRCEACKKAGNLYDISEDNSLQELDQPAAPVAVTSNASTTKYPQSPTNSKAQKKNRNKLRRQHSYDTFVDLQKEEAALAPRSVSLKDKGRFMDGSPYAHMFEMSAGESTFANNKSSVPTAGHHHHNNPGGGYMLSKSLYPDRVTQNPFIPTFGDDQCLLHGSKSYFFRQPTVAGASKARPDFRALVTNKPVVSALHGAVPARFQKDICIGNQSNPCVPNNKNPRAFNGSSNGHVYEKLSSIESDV
NR1/NR2D, sequence (O15399 28-1336, species assumed, other chains not shown): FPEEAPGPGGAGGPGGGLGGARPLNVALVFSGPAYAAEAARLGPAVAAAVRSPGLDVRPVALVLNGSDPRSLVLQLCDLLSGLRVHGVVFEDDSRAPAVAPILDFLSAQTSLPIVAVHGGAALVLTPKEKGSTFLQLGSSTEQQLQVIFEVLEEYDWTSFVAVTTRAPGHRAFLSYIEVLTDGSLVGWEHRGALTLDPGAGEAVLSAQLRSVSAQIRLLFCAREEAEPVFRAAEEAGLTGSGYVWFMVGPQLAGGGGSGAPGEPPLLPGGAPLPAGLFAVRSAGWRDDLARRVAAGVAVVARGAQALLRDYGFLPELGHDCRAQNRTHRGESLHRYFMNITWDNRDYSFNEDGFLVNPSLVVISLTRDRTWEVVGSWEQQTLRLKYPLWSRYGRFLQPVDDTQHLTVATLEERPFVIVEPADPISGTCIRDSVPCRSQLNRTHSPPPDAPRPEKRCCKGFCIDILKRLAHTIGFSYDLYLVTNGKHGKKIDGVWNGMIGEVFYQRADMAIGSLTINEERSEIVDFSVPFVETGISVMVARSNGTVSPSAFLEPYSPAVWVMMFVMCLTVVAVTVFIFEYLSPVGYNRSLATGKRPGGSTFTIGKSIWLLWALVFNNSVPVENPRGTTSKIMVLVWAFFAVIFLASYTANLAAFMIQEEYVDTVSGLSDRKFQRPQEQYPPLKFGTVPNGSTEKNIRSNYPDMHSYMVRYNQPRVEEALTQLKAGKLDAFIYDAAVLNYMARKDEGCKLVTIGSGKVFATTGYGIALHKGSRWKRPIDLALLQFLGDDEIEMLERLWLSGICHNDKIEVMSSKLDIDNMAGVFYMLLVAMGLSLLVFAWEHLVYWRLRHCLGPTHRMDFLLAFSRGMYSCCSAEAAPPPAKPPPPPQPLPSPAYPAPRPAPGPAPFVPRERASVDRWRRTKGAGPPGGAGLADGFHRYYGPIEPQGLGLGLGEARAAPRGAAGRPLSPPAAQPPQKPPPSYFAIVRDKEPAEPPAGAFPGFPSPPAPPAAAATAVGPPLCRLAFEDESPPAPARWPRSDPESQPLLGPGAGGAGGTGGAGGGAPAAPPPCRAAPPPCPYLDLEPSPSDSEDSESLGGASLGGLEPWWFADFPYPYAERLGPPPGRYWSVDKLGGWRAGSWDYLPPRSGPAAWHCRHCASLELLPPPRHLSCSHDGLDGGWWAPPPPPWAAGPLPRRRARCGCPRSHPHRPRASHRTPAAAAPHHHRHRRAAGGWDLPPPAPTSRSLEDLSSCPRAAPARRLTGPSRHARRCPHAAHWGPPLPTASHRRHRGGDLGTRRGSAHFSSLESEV
T1 sequence (Q12879 23-1464, species assumed, other chains not shown): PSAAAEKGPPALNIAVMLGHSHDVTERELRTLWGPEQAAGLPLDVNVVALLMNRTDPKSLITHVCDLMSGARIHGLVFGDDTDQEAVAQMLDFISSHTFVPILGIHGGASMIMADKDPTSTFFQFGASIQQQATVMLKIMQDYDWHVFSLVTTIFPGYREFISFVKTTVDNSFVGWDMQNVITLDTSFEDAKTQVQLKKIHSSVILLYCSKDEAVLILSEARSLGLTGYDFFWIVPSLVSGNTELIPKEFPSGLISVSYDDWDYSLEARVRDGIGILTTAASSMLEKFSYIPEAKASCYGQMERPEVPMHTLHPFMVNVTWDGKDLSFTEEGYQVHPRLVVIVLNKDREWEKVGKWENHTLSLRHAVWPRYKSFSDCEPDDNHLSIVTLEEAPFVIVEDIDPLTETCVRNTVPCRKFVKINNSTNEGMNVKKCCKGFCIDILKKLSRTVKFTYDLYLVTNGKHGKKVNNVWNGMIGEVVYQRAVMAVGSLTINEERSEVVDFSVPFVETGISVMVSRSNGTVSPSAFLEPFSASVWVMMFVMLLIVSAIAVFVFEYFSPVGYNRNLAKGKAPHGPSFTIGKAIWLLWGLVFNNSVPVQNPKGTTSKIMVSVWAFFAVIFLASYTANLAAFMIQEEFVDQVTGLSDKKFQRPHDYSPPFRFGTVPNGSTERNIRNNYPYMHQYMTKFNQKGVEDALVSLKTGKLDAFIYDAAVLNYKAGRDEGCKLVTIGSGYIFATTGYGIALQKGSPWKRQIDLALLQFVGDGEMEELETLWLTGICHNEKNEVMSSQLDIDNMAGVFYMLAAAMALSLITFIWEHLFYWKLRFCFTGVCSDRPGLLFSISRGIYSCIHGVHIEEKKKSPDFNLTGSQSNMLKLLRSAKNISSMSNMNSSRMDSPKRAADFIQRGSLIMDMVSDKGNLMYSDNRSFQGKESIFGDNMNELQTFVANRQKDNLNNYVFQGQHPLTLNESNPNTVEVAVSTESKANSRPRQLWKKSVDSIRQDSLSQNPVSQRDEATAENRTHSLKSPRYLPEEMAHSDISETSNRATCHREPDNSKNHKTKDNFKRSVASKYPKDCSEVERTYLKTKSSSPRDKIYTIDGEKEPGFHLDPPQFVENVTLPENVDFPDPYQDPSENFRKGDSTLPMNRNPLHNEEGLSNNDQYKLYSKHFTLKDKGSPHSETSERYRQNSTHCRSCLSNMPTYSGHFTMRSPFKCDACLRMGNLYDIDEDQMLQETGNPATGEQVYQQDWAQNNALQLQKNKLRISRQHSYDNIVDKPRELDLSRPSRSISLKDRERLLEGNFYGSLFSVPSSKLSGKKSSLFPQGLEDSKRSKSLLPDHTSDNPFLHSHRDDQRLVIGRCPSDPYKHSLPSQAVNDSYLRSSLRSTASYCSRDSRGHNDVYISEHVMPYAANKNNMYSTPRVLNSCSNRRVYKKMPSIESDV

SMILES	activity at 100 µM (NR1/NR2A) [%]	activity at 100 µM (NR1/NR2B; [1]) [%]	activity at 100 µM (NR1/NR2C) [%]	activity at 100 µM (NR1/NR2D; read-out: 2D percent effect at the maximum tested concentration) [%]	activity at 30 µM (NR1/NR2A; at 30 μM) [%]	activity at 30 µM (NR1/NR2B; at 30 μM, read-out: 2B percent effect at the maximum tested concentration) [%]	IC50 (NR1/NR2C) [µM]	Emax (NR1/NR2C) [%]	IC50 (NR1/NR2D) [µM]	Emax (NR1/NR2D) [%]	IC50 (NR1/NR2B) [µM]	activity at 100 µM (NR1/NR2D; [2]) [%]
COc1cc2c(cc1OC)CN(C(=O)c1ccccc1)CC2 [1180-28]	71	95	78	80	–	–	–	–	–	–	–	–
COc1ccc(/C=C/C2c3cc(OC)c(OC)cc3CCN2C(=O)c2cccc(Cl)c2)cc1 (stereo not drawn) [1180-31]	–	–	–	–	95	82	1.2	190	1.5	172	–	–
CSC1=NCCN1C(=O)c1ccc(C(C)(C)C)cc1 [compound 1343]	115	–	–	–	–	–	139	303	210	480	138	–
CSC1=NCCN1C(=O)c1ccc(C)cc1 [compound 1344]	78	–	88	–	–	–	–	–	–	–	174	97
Cc1cc(C(=O)O)c(NC(=O)c2ccc(C(C)(C)C)cc2)s1 [compound 1357]	102	102	–	–	–	–	175	388	120	326	–	–
CCc1ccc(OCC2c3cc(OC)c(OC)cc3CCN2C(=O)c2ccccc2)cc1 (stereo not drawn) [compound 1366]	98	97	–	–	–	–	3	121	–	–	–	108
COc1ccc(OCC2c3cc(OC)c(OC)cc3CCN2C(=O)c2ccc(Cl)cc2)cc1 (stereo not drawn) [compound 1368]	105	78	–	–	–	–	4	135	5	114	–	–
COc1ccc(OCC2c3cc(OC)c(OC)cc3CCN2C(=O)c2cccc(F)c2)cc1 (stereo not drawn) [compound 1369]	94	84	–	–	–	–	7	184	7	169	–	–
COc1ccc(OCC2c3cc(OC)c(OC)cc3CCN2C(=O)c2ccc([N+](=O)[O-])cc2)cc1 (stereo not drawn) [compound 1370]	77	78	83	–	–	–	–	–	–	–	–	95
COc1ccc(OCC2c3cc(OC)c(OC)cc3CCN2C(=O)c2ccc(C)cc2)cc1 (stereo not drawn) [compound 1371]	73	70	89	–	–	–	–	–	–	–	–	100
COc1ccc(OCC2c3cc(OC)c(OC)cc3CCN2C(=O)c2cccc(Cl)c2)cc1 (stereo not drawn) [compound 1390]	115	82	–	–	–	–	3	215	3	205	–	–
COc1ccc(OCC2c3cc(OC)c(OC)cc3CCN2C(=O)c2cccc(Br)c2)cc1 (stereo not drawn) [compound 1391]	119	74	–	–	–	–	1	195	2	188	–	–
COc1ccc(OCC2c3cc(OC)c(OC)cc3CCN2C(=O)c2cccc(OC)c2)cc1 (stereo not drawn) [compound 1392]	104	59	–	–	–	–	6	181	12	179	–	–
COc1ccc(OCC2c3cc(OC)c(OC)cc3CCN2C(=O)c2ccc(Br)cc2)cc1 (stereo not drawn) [compound 1393]	120	80	96	–	–	–	–	–	–	–	–	94
COc1cc2c(cc1OC)C(COc1ccc(F)cc1)N(C(=O)c1cccc(F)c1)CC2 (stereo not drawn) [compound 1394]	101	61	71	–	–	–	–	–	–	–	–	68
Cc1ccc(C(=O)Nc2sc(C)cc2C(=O)O)cc1 [compound 1395]	92	94	95	–	–	–	–	–	–	–	–	77
Cc1cc(C(=O)O)c(NC(=O)c2ccccc2)s1 [compound 1396]	96	97	95	–	–	–	–	–	–	–	–	81
Cc1ccnc(NC(=O)c2ccc(C(C)(C)C)cc2)c1 [compound 1398]	89	102	87	–	–	–	–	–	–	–	–	76
CC(C)(C)c1ccc(C(=O)Nc2sc3c(c2C(=O)O)CCC3)cc1 [compound 1399]	100	108	–	–	–	–	77	301	26	261	–	–
CCOC(=O)c1cc(C)sc1NC(=O)c1ccc(C(C)(C)C)cc1 [compound 1400]	80	89	96	–	–	–	–	–	–	–	–	86

SMILES	activity at 100 µM (NR1/NR2A) [%]	activity at 100 µM (NR1/NR2B; [1]) [%]	activity at 100 µM (NR1/NR2C) [%]	activity at 100 µM (NR1/NR2D; read-out: 2D percent effect at the maximum tested concentration) [%]	activity at 30 µM (NR1/NR2A; at 30 μM) [%]	activity at 30 µM (NR1/NR2B; at 30 μM, read-out: 2B percent effect at the maximum tested concentration) [%]	IC50 (NR1/NR2C) [µM]	Emax (NR1/NR2C) [%]	IC50 (NR1/NR2D) [µM]	Emax (NR1/NR2D) [%]	IC50 (NR1/NR2B) [µM]	activity at 100 µM (NR1/NR2D; [2]) [%]
Cc1cc(NC(=O)c2ccc(C(C)(C)C)cc2)no1 [compound 1401]	105	87	97	–	–	–	–	–	–	–	–	86
CSC1=NCCN1C(=O)c1ccc2ccccc2c1 [compound 1402]	104	80	103	–	–	–	–	–	–	–	–	93
Cc1ccc(CSc2nccn2C(=O)c2ccc(C(C)(C)C)cc2)cc1 [compound 1403]	88	94	104	–	–	–	–	–	–	–	–	86
O=C(O)C1=C(NC(=O)c2ccc(Br)cc2)SC2CCCC12 (stereo not drawn) [compound 1404]	86	68	99	–	–	–	–	–	–	–	–	77
CC(C)(C)c1ccc(C(=O)Nc2scc(-c3ccccc3)c2C(=O)O)cc1 [compound 1406]	75	–	–	–	–	–	45	341	44	351	37	–
CC(C)(C)c1ccc(C(=O)Nc2sc3c(c2C(=O)O)CCCC3)cc1 [compound 1417]	87	102	–	–	–	–	20	202	16	205	–	–
Cc1sc(NC(=O)c2ccc(C(C)(C)C)cc2)c(C(=O)O)c1C [compound 1418]	99	115	–	–	–	–	33	187	35	195	–	–
O=C(O)C1=C(NC(=O)c2ccc(I)cc2)SC2CCCC12 (stereo not drawn) [compound 1419]	93	91	97	–	–	–	–	–	–	–	–	90
COc1ccc(C(=O)Nc2sc(C)cc2C(=O)O)cc1 [compound 1420]	118	97	94	–	–	–	–	–	–	–	–	75
CCc1cc(C(=O)O)c(NC(=O)c2ccc(C(C)(C)C)cc2)s1 [compound 1421]	106	100	–	–	–	–	41	159	35	152	–	–
CCOc1ccc(-c2csc(NC(=O)c3ccc(C(C)(C)C)cc3)c2C(=O)O)cc1 [compound 1423]	121	–	–	–	–	–	26	323	25	370	18	–
COc1ccc(-c2csc(NC(=O)c3ccc(C(C)(C)C)cc3)c2C(=O)O)cc1 [compound 1424]	123	–	–	–	–	–	42	434	43	475	19	–
COc1ccc(OCC2c3cc(OC)c(OC)cc3CCN2C(=O)c2cccc(C)c2)cc1 (stereo not drawn) [compound 1425]	74	94	–	–	–	–	5	208	5	172	–	–
COc1ccc(OCC2c3cc(OC)c(OC)cc3CCN2C(=O)c2cccc(C(F)(F)F)c2)cc1 (stereo not drawn) [compound 1426]	88	86	–	–	–	–	2	171	2	204	–	–
Cc1csc(C(=O)O)c1NC(=O)c1ccc(C(C)(C)C)cc1 [compound 1428]	105	70	80	–	–	–	–	–	–	–	–	72
Cc1sc(NC(=O)c2ccc(C(C)(C)C)cc2)c(C(N)=O)c1C [compound 1433]	97	98	–	–	–	–	51	134	34	150	–	–
Cc1ccc(-c2csc(NC(=O)c3ccc(C(C)(C)C)cc3)c2C(=O)O)cc1 [compound 1434]	121	–	–	–	–	–	16	224	18	273	11	–
CC(C)(C)c1ccc(C(=O)Nc2scc(-c3ccc(Br)cc3)c2C(=O)O)cc1 [compound 1435]	107	98	103	–	–	–	–	–	–	–	–	103
COc1ccc(NC(O)C2CN(C)C(=O)c3cc(OC)c(OC)cc32)c(OC)c1 (stereo not drawn) [compound 1438]	114	85	77	–	–	–	–	–	–	–	–	87

Source: US8822462B2, “Subunit selective NMDA receptor potentiators for the treatment of neurological conditions” (Emory University, priority 2009, dated 2014)
